Molecules are shown by their SMILES.

As for `CCc1nc2cc(C(N)=O)c(Cl)cc2n1-c1ccc(CCOC(=O)NS(=O)(=O)c2ccc(C)cc2)cc1`, the melting point (commonly the temperature, or range, at which the solid turns liquid) lay in the range of 170 to 175 °C.
For the molecule `CCc1nc2cc(COC)c(Cl)cc2n1-c1ccc(CCOC(=O)NS(=O)(=O)c2ccc(C)cc2)cc1`, the melting point was 174.5 °C.
Molecule `Cc1ccc(S(=O)(=O)NC(=O)OCCc2ccc(-n3c(CCC(=O)c4cccnc4)nc4cc(C(F)(F)F)c(Cl)cc43)cc2)cc1` had a melting point of 89 to 95 °C.
Take `Cc1ccc(S(=O)(=O)NC(=O)OCCc2ccc(-n3c(CCC(=O)c4ccccn4)nc4cc(C(F)(F)F)c(Cl)cc43)cc2)cc1`: the melting point was determined as 233.6 °C.
`Cc1ccc(S(=O)(=O)NC(=O)OCCc2ccc(-n3c(CCC(=O)N4CCCCC4)nc4cc(C(F)(F)F)c(Cl)cc43)cc2)cc1` had a melting point of 210 °C.
For `Cc1ccc(S(=O)(=O)NC(=O)OCCc2ccc(-n3c(CCCN4CCCC4=O)nc4cc(C(F)(F)F)c(Cl)cc43)cc2)cc1`, the melting point lay within 85 to 90 °C.
The molecule `CCc1nc2c(C)cc(C)nc2n1-c1ccc(CC(C)OC(=O)NS(=O)(=O)c2ccc(C)cc2)cc1` (stereo not shown) [Example 7, 2-[4-(2-ETHYL-5,7-DIMETHYL-3H-IMIDAZO[4,5-b]PYRIDIN-3-YL)PHENYL]-1-METHYLETHYL (4-METHYLPHENYL)SULFONYLCARBAMATE] showed a melting point of 108 °C.
The molecule `CCc1nc2cc(C(=O)NC)c(Cl)cc2n1-c1ccc(CCOC(=O)NS(=O)(=O)c2ccc(C)cc2)cc1` [Example 334, 2-(4-{6CHLORO-2-ETHYL-5-[(METHYLAMINO)CARBONYL]-1H-BENZIMIDAZOL-1-YL}PHENYL)ETHYL (4-METHYLPHENYL)SULFONYLCARBAMATE] registered a melting point of 201 to 204 °C.
The figure for `CCc1nc2cc(CO)c(Cl)cc2n1-c1ccc(CCOC(=O)NS(=O)(=O)c2ccc(C)cc2)cc1` [Example 337, 2-{4-[6-CHLORO-2-ETHYL-5-(HYDROXYMETHYL)-1H-BENZIMIDAZOL-1-YL]PHENYL}ETHYL (4-METHYLPHENYL)SULFONYLCARBAMATE] is 172.7 °C.
Then `Cc1ccc(S(=O)(=O)NC(=O)OCCc2ccc(-n3c(CCC(=O)N4CCCC4)nc4cc(C(F)(F)F)c(Cl)cc43)cc2)cc1` [Example 363, 2-{4-[6-CHLORO-2-[3-OXO-3-(1-PYRROLIDINYL)PROPYL]-5-(TRIFLUOROMETHYL)-1H-BENZIMIDAZOL-1-YL]PHENYL}ETHYL (4-METHYLPHENYL)SULFONYLCARBAMATE], with 98 to 105 °C.

Source of the values: patent US7479564B2, “Aryl or heteroaryl fused imidazole compounds as anti-inflammatory and analgesic agents” (RaQualia Pharma Inc., priority 2000, dated 2009).
